Measured values from US5648369A, “Aminoalkylpyridine compounds which are useful as anitconvulsant drugs, excitatory amino acid inhibitors and NMDA sigma receptor antagonists” (priority 1991, dated 1997).

Key:
MES and scMet seizures = assay: Anticonvulsant screening, ASP classification (MES and scMet tests) in mice, i.p.; type: in vivo, mouse; conditions: for ASP classification (Table 8): Table 8 comparison, titled MES Test, Rat, p.o.; for minimal effective dose: ip, i.p. mouse, read-out: ASP Group Classification
[1] = tested on: endogenous L-glutamate release; assay: Ca2+ dependent, K+ evoked release of endogenous L-glutamate in cerebrocortical slices; type: cell-based, guinea pig; conditions: Cavia porcellus, means ± SEM, n = 4
MK-801 = assay: Radioligand binding, MK-801, [3H]MK-801
Text: (§1) EAAs are known to play important roles in excitatory neurotransmission in partial seizures as discussed earlier. […] Thus, several aminoalkylpyridines of this invention are effective antagonists of NMDA-receptor mediated EAA neurotransmission and function as noncompetitive NMDA antagonists and thus can be used to advantage in epilepsy, stroke and Alzheimer's disease.
(§2) EAAs are known to play important roles in excitatory transmission in partial seizures as discussed earlier. In general, antieptileptic drugs effective against MES seizures alter ionic transport across excitable membranes [Porter, R. J., and Pitlick, W. H., In "Basic and Clinical Pharmacology", 4th Edn., B. G. Katzung, Ed., Appleton and Lange, CA 1989, pp. 287-303]. Based on this rationale, the aminoalkylpyridines may be expected to attenuate EAA neurotransmission. Indeed, evaluation of potential displacement activity of #2 at all inhibitory and excitatory amino acid receptor types and subtypes using appropriate radioligands, indicate that this aminoalkylpyridine inhibits at 10 μM concentration, 49% of the binding of [^3 H]DTG, a ligand highly specific for the σ (sigma) receptor population of the PCP receptors on the NMDA receptor-ionophore complex (Table 6).
(§3) Values are expressed as the percent inhibition of specific binding and […]

Sigma = assay: Radioligand binding, Sigma, [3H]DTG; conditions: σ receptor population
Text: (§4) EAAs are known to play important roles in excitatory neurotransmission in partial seizures as discussed earlier.
(§5) EAAs are known to play important roles in excitatory transmission in partial seizures as discussed earlier.

PCF = assay: Radioligand binding, PCP, [3H]TCP
Text: as §1, §2, §3

[2] = Rotorod ataxia test (neurotoxicity), mice, i.p.; conditions: mouse, in vivo, ip
Procedure: Neurotoxicity is evaluated in mice by the rotorod ataxia test. The animal is placed on a wooden rod of 11/8" diameter rotating at 6 rpm. Normal mice can remain on a rod rotating at this speed indefinitely.

[3] = tested on: subcutaneous pentylenetetrazol seizures; assay: Subcutaneous pentylenetetrazol (Metrazole) seizure threshold test (scMet), mice, i.p.; type: in vivo; conditions: Mus musculus, ip
Procedure: (§6) The Subcutaneous Pentylenetetrazol (Metrazole) Seizure Threshold Test (scMet): A 0.5% solution of 85 mg/kg of pentylenetetrazol is administered subcutaneously in the posterior midline. The animal is observed for 30 minutes.

[4] = tested on: maximal electroshock seizures; assay: Maximal electroshock seizure (MES) test, anticonvulsant quantification in mice, i.p.; conditions: for ED50: Mus musculus, ip, read-out: ED50 MES; for P.I. MES (TD50/ED50): mice
Procedure: Screening Methodology to Determine Anticonvulsant Activity: In mice, i.p.: All compounds are solubilized in 0.5% methylcellulose. […] The compounds are administered intraperitoneally in a volume of 0.01 ml/gm to male Carworth Farms #1 mice weighing about 20 gm. All compounds are tested at least at three dose levels (30, 100 an 300 mg/kg) at 30 minutes and 4 hours after their administration.
(§7) The Maximal Electroshock Seizure Test (MES): Maximal electroshock seizures are elicited with a 60 Hz alternating current of 50 mA intensity in mice and about 150 mA in rats (5-7 times that necessary to elicit minimal electroshock seizures), delivered for 0.2 sec via corneal electrodes. A drop of 0.9% saline is instilled in the eye prior to application of the electrodes in order to prevent the death of the animal. Abolition of the hind limb tonic extension component of the seizure is defined as protection and results are expressed as number of animals protected/number of animals tested.
Anticonvulsant Quantification in Mice, i.p.: The ED50 values are determined in the MES, scMet and rotorod ataxia test.

[5] = tested on: maximal electroshock seizures; assay: Maximal electroshock seizure (MES) test in the rat, p.o.; conditions: for responders at 50 mg/kg / ED50: Rattus norvegicus, po; for responders at 50 mg/kg: read-out: Percent protection at 50 mg/kg dose, p.o., in the MES Test in the rat; for ED50: read-out: ED50 MES
Text: as §7
This species will be subject of the complete anticonvulsant quantification test evaluation as described above, but after oral (gavage) administration of the candidate compound.
Neurological deficit in rats is examined by the positional sense test and gait and stance test. […] Inability to do so rapidly indicates a neurologic deficit. In the gait and stance test, a neurologic deficit is indicated by a circular or zigzag gait, ataxia, abnormal spread of the legs, abnormal body posture, tremor, hyperactivity, lack of exploratory behavior, somnolence, stupor, or catalepsy.

in vivo = assay: in vivo; set-up: species or system rat (Sprague-Dawley); conditions: rat, po
Text: Inability to do so rapidly indicates a neurologic deficit.

[6] = tested on: subcutaneous pentylenetetrazol seizures; assay: Subcutaneous pentylenetetrazol seizure threshold test (scMet), rat, p.o.; type: in vivo, rat (Sprague-Dawley); conditions: po
Procedure: as §6

Glycine = Glycine (Homo sapiens, UniProt Q05586); assay: Radioligand binding, Glycine (excitatory), [3H]glycine; conditions: reference compound, [3H]glycine
Text: as §4, §5

Kainate = assay: Radioligand binding, Kainate, [3H]KA; conditions: reference compound, [3H]KA
Text: as §1, §2, §3

Adenosine = assay: Radioligand binding, Adenosine; conditions: reference compound, Adenosine
Text: as §1, §2, §3

SMILES	activity at the [3H]MK-801-binding receptor sites (in words) (MK-801)	minimal effective dose (MES and scMet seizures)	inhibition of the binding of [3H]DTG (in words) (Sigma)	activity at the [3H]TCP-binding receptor sites / PCP receptors (in words) (PCF)	responders at 50 mg/kg [5]	also measured
Cc1ccc(N2N=NCC2c2ccncc2)cc1 (centres unmarked) [4-CH3, reference compound]						ASP classification (Table 8) (MES and scMet seizures): II (Class II compounds show anticonvulsant activity at doses greater than 100 mg/kg or show activity at 100 mg/kg which is not reinforced by similar activity at 300 mg/kg)
COc1ccc(N2N=NCC2c2ccncc2)cc1 (centres unmarked) [4-OCH3, reference compound]						ASP classification (Table 8) (MES and scMet seizures): III (Those failing to demonstrate anticonvulsant activity at doses up to 300 mg/kg are considered inactive)
Clc1ccc(N2N=NCC2c2ccncc2)cc1 (centres unmarked) [ADD17014, reference compound]						activity at 50 µM ([1]; 50 μM (K+), 30 mM K+, P < 0.001 vs K+ alone): 136 ± 6%; activity at 50 µM ([1]; 50 μM (basal)): 101 ± 9%; activity at 100 µM ([1]; 100 μM (K+), 30 mM K+, P < 0.001 vs K+ alone): 122 ± 5%; activity at 100 µM ([1]; 100 μM (basal)): 109 ± 4%
CC(Nc1ccc(Cl)c(Cl)c1)c1ccncc1 (centres unmarked) [Compound 1, 1-(3,4-Dicloroanilino)-1-(4-pyridyl)-ethan]	no activity	< 100 mg/kg	inhibit selectively	no activity		
CC(Nc1cccc(Cl)c1)c1ccncc1 (centres unmarked) [Compound 3, 1-(3-Chloroanilino)-1-(4-pyridyl)-ethan]	no activity	< 100 mg/kg	inhibit selectively	no activity	50 to 75%	TD50 [2]: > 500 mg/kg; ED50 [3]: > 250 mg/kg; ED50 [4]: 95.5 mg/kg; P.I. MES (TD50/ED50) [4]: > 5.24
CC(Nc1ccc(Br)cc1)c1ccncc1 (centres unmarked) [Compound 4, 1-(4-Bromoanilino)-1-(4-pyridyl)-ethan]	no activity	< 100 mg/kg	inhibit selectively	no activity	75 to 100%	TD50 [2]: > 200 mg/kg; TD50 (in vivo): > 500 mg/kg; ED50 [3]: > 200 mg/kg; ED50 [4]: 62.7 mg/kg; P.I. MES (TD50/ED50) [4]: > 3.19; ED50 [6]: > 250 mg/kg; ED50 [5]: 20.9 mg/kg; P.I. MES (TD50/ED50) ([5]; rat, p.o.): > 23.93
CC(Nc1ccc(F)cc1)c1ccncc1 (centres unmarked) [Compound 5, 1-(4-Fluoroanilino)-1-(4-pyridyl)-ethan]	no activity	< 100 mg/kg	inhibit selectively	no activity	75 to 100%	TD50 [2]: 141 mg/kg; TD50 (in vivo): > 500 mg/kg; ED50 [3]: > 80 mg/kg; ED50 [4]: 57.4 mg/kg; P.I. MES (TD50/ED50) [4]: 2.46; ED50 [6]: > 250 mg/kg; ED50 [5]: 81.1 mg/kg; P.I. MES (TD50/ED50) ([5]; rat, p.o.): > 6.17
Cc1ccc(NC(C)c2ccncc2)cc1 (centres unmarked) [Compound 6, 1-(4-Methylanilino)-1-(4-pyridyl)-ethan]	no activity	< 100 mg/kg	inhibit selectively	no activity		ASP classification (Table 8) (MES and scMet seizures): I (They demonstrate anticonvulsant activity in either the MES test or the scMet test, or both at doses of 100 mg/kg or 30 mg/kg without signs of neurological deficit)
COc1ccc(NC(C)c2ccncc2)cc1 (centres unmarked) [Compound 7, 1-(4-Methoxyanilino)-1-(4-pyridyl)-ethan]		< 100 mg/kg			25 to 50%	ASP classification (Table 8) (MES and scMet seizures): I (They demonstrate anticonvulsant activity in either the MES test or the scMet test, or both at doses of 100 mg/kg or 30 mg/kg without signs of neurological deficit); protection at 50 mg/kg (Table 8) ([5]; 50 mg/kg, rat, p.o., MES): 25-50%
CC(Nc1ccccc1)c1ccncc1 (centres unmarked) [Compound 8, 1-(Anilino)-1-(4-pyridyl)-ethan]	no activity	< 100 mg/kg	inhibit selectively	no activity	50 to 75%	TD50 [2]: 161 mg/kg; TD50 (in vivo): > 500 mg/kg; ED50 [3]: < 300 mg/kg; ED50 [4]: 81.7 mg/kg; P.I. MES (TD50/ED50) [4]: 1.97; ED50 [6]: > 250 mg/kg; ED50 [5]: 48.4 mg/kg; P.I. MES (TD50/ED50) ([5]; rat, p.o.): > 10.33
CC(Nc1ccc(Cl)cc1)c1cccnc1 (centres unmarked) [Compound 9, 1-(4-Chloroanilino)-1-(3-pyridyl)-ethan]	no activity	< 100 mg/kg	inhibit selectively	no activity	25 to 75%	
Clc1ccc(NCc2ccncc2)cc1Cl [Compound 10, 1-(3,4-Dichloroanilino)-1-(4-pyridyl)-methan]	no activity	< 100 mg/kg	inhibit selectively	no activity	50%	
Clc1ccc(NCc2ccncc2)cc1 [Compound 11, 1-(4-Chloroanilino)-1-(4-pyridyl)-methan]	no activity	< 100 mg/kg	inhibit selectively	no activity	50 to 100%	TD50 ([2]; mice, i.p., read-out: TD50 (rotorod)): < 225 mg/kg; TD50 (in vivo): > 500 mg/kg; ED50 [3]: 107 mg/kg; ED50 [4]: 68.4 mg/kg; P.I. MES (TD50/ED50) [4]: < 3.3; ED50 [6]: > 250 mg/kg; ED50 [5]: 39.1 mg/kg; P.I. MES (TD50/ED50) ([5]; rat, p.o.): > 12.8
Clc1cccc(NCc2ccncc2)c1 [Compound 12, 1-(3-Chloroanilino)-1-(4-pyridyl)-methan]	no activity	< 100 mg/kg	inhibit selectively	no activity	> 50%	
Brc1ccc(NCc2ccncc2)cc1 [Compound 13, 1-(4-Bromoanilino)-1-(4-pyridyl)-methan]	no activity	< 100 mg/kg	inhibit selectively	no activity	> 50%	
Fc1ccc(NCc2ccncc2)cc1 [Compound 14]		< 100 mg/kg			25%	
Cc1ccc(NCc2ccncc2)cc1 [Compound 15, 1-(4-Methylanilino)-1-(4-pyridyl)-methan]		< 100 mg/kg				
COc1ccc(NCc2ccncc2)cc1 [Compound 16, 1-(4-Methoxyanilino)-1-(4-pyridyl)-methan]		< 100 mg/kg				
C[C@@H](N)C(=O)O [D-Alanine, reference compound]						Ki (Glycine): 4900 nM
c1ccc(N2N=NCC2c2ccncc2)cc1 (centres unmarked) [H, reference compound]						ASP classification (Table 8) (MES and scMet seizures): II (Class II compounds show anticonvulsant activity at doses greater than 100 mg/kg or show activity at 100 mg/kg which is not reinforced by similar activity at 300 mg/kg)
C=C(C)[C@H]1CN[C@H](C(=O)O)[C@H]1CC(=O)O [Kainic Acid, reference compound]						Ki (Kainate): 24.9 nM
CNC(=O)[C@H]1O[C@@H](n2cnc3c(N)ncnc32)[C@H](O)[C@@H]1O [MECA, reference compound]						Ki (Adenosine): 39.5 nM
C[C@]12N[C@H](Cc3ccccc31)c1ccccc12 [MK-801, reference compound]						Ki (MK-801; reference compound, [3H]MK-801): 4.3 nM
c1ccc(C2(N3CCCCC3)CCCCC2)cc1 [PCP, phencyclidine, reference compound]						Ki (PCF; reference compound, [3H]TCP): 62.3 nM
